Experimental data published in patent US11839623B2, “Antiviral prodrugs and formulations thereof” (BOARD OF REGENTS OF THE UNIVERSITY OF NEBRASKA, priority 2018, dated 2023).
Where “and” joins values, the source holds several entries; their conditions need not be identical. Equal entries are not always repeated.

Tests used:
[1] = tested on: monocyte-derived macrophages (MDM); test: Intracellular level of CBV-TP in MDM treated with 10 μM ABC or ABC ProTides; assay type: cell-based; conditions: 10 μM drug; for maximum CBV-TP levels: 3-48 hours; for percentage decrease of intracellular CBV-TP from Cmax at 48 hours: (Cmax−Cmin)/(Cmax)*100
Procedure: (§1) Cell model for in vitro studies: Human peripheral blood monocytes were obtained and cultured as described (Gendelman, et al., J. Exp. Med. (1988) 167:1428-1441). Briefly, human peripheral blood monocytes were obtained by leukapheresis from HIV-1/2 and hepatitis B seronegative donors, followed by purification via countercurrent centrifugal elutriation. Elutriated monocytes were cultured as adherent cells in Dulbecco's […] medium (DMEM) supplemented with 10% heat-inactivated pooled human serum, 10 μg/mL ciprofloxacin, 50 μg/mL gentamicin, and 1000 U/mL recombinant macrophage colony stimulating factor. Cells were maintained at 37° C. in a 5% CO2 incubator. Seven days later, differentiated macrophages (MDM) were used for the experiments.
Intracellular level of CBV-TP of ABC and its ProTides: Intracellular levels of CBV-TP were measured as described (Balzarini, et al., FEBS Lett. (2004) 573:38-44). MDM were treated with 10 μM ABC and ABC ProTides. At 3, 6, 12, 24 and 48 hours after treatment, MDM were washed with PBS to remove excess free drug. The cells were then collected in 70% methanol. CBV-TP from MDM was extracted and quantitated by LC-MS/MS as described (Gautam, et al., J. Pharm. Biomed. Anal. (2018) 153:248-259). Sep-Pak QMA cartridges (360 mg, 37-55 μm; Waters) were used to separate CBV-TP from their mono- and di-phosphates counterparts. The QMA cartridges were conditioned with 10 ml of 500 mM KCl followed by 10 ml of 5 mM KCl. Samples were loaded onto the cartridges and washed with 15 ml of 75 mM KCl. The triphosphate fraction was eluted with 3 ml of 500 mM KCl and collected for de-phosphorylation. The pH of the TP fraction was lowered to 4.25 by adding 15 μl ammonium acetate buffer (pH 4.10 mM) per ml eluate, and dephosphorylated by adding one unit of type XA sweet potato acid phosphatase per ml eluate and incubating at 37° C. for 30 minutes. The ^15N2^13C-3TC and d4-ABC internal standard was added at this point. Samples were then loaded onto Waters OASIS® HLB cartridges (60 mg, 30 μm; Waters) pre-conditioned with 3 ml MeOH and 3 ml H2O, and washed with 3.5 ml H2O to remove salts. The nucleosides of interest were then eluted with 1.5 ml of MeOH and evaporated under vacuum. Once dry, the residue was reconstituted with a 100 μl of 25% MeOH and stored in the −20° C. freezer until the time of LC-MS/MS analyses. The LC-MS/MS system comprised of a Waters ACQUITY ultra-performance liquid chromatography (UPLC) system (Waters, Milford, Mass.) coupled to a triple quadrupole mass spectrometer with electrospray ionization (ESI) source (Waters Xevo TQ-XS). For the indirect quantification of TPs, chromatographic separation was performed with an ACQUITY UPLC using CSH analytical column (2.1×100 mm, 1.7 μm; Waters) equipped with a guard column (Waters, Milford, Mass.). Mobile phase A consisted of ammonium bicarbonate (pH 7, 7.5 mM) and mobile phase B was methanol. The flow rate was 0.25 ml/minute. […] Mobile phase B was then reset to 12% over 0.25 minutes and the column was equilibrated for 2.75 minutes before the next injection. The total run time was 13 minutes. The mass spectrometer was operated in the positive ion mode using multiple reaction monitoring (MRM). The following transitions were monitored: m/z 230→112 for 3TC, m/z 248→152 for CBV, m/z 287→191 for ABC, m/z 233→115 for the internal standard (IS) ^15N2^13C-3TC, and m/z 291→195 for IS d4-ABC. 3TC, CBV, ABC, ^15N2^13C-3TC, and d4-ABC were detected at a cone voltage of 22, 2, 4, 12, and 2 V, respectively, and a collision energy of 12, 12, 20, 10, and 20 V, respectively.

[2] = tested on: monocyte-derived macrophages (MDM); test: Cell viability of ABC and its ProTides in MDM (CCK-8); assay type: cell-based, human
Procedure: Cell viability of ABC and its ProTides: A CCK-8 Kit was purchased from Dojindo (Rockville, Md.) and used to test cell viability after treatment with ABC and its ProTides. Briefly, MDM plated in a 96-well plate were treated with 100 μl of 0-400 μM ABC and its ProTides for 24 hours. Drug containing medium was removed and replaced with fresh medium. Ten μl of CCK-8 solution was added to each well followed by incubation of the plate for 2 hours at 37° C. The absorbance (at 450 nm) of each well was measured using a microplate reader. The cell viability was calculated according to manufacturer's instructions.

HIV-1ADA [3] = test: Antiretroviral activity of ABC and its ProTides against HIV-1ADA in MDM (RT activity); assay type: cell-based; conditions: human MDM, RT activity day 10 post infection
Procedure: as §1
Antiretroviral activity of ABC and its ProTides: The antiviral activities of native ABC and ABC ProTides against HIV-1ADA were determined in MDM as described (Singh, et al., Nanomedicine (2016) 11:1913-1927). MDM were incubated with various concentrations of ABC or ABC ProTides for 60 minutes followed by infection with HIV-1ADA at a multiplicity of infection (MOI) of 0.01 for 4 hours. […] At day 10 post infection, supernatants were collected and analyzed for HIV-1 reverse transcriptase (RT) activity (Kalter, et al., J. Clin. Microbiol. (1992) 30:993-995).

Stability assay in serum = assay type: in vitro ADME, human; conditions: 37° C., 24 hours, 15 μg/ml
Procedure: Stability Assay in Serum: The experiment was carried out by adding each ProTide into 100 μl human serum to reach a final concentration of 15 μg/ml in glass vial, and duplicate samples were used for each ProTide. After incubating the samples at 37° C. with shaking for 24 hours, 900 μl of MeOH was added to stop the reaction. Samples were vortexed for 3 minutes, then centrifuged down at 16,000 g for 10 minutes. The supernatants were transfer to new 2 ml tubes and evaporated to dryness under vacuum. The samples were reconstituted using 50 μl of MeOH, vortexed for 3 minutes and centrifuged down at 16,000 g for 10 minutes. The supernatants were analyzed by HPLC for drug concentrations. For control sample (0 minute), MeOH were added first to stop the enzyme before adding the ProTides.

[4] = Characterization of NPABC nanoparticles (DLS, drug loading); assay type: physicochemical; conditions: PABC nanocrystals
Excerpt: The LASER ProTide nanocrystals (NPABC, NP3TC, NPFTC and NPTFV) may be coated with either cell or tissue receptor targeted or non-targeted poloxamer 407 (P407), poloxamer 338 (P338), 1,2-distearoyl-sn-glycero-3-phosphocholine (DSPC), 1,2-distearoyl-sn-glycero-3-phosphoethanolamine-N-carboxy(polyethylene glycol)-2000 (DSPE-PEG) or polyvinyl alcohol (PVA). The nanocrystals may also be stabilized with polysorbate and polyethylene glycol surfactants. Here, a drug to surfactant ratio of 2:1 by weight was used to manufacture NPABC nanoparticles. Briefly, 1-5% (w/v) PABC and 0.5-2.5% (w/v) P407 were mixed in sterile phosphate buffer. The premixed suspensions were nanoformulated by wet milling or high-pressure homogenization at 20,000-psi until desirable size and polydispersity index were achieved. The LASER ProTide nanoformulations were characterized for particle size, polydispersity index (PDI) and zeta potential by dynamic light scattering (DLS). […] For P407-PABC nanoparticles (NPABC), the average size (diameter) was 350 nm, the PDI was 0.28, and the charge was −21.4 mV.
Nanoparticle morphology was determined by scanning electron microscopy (SEM). UPLC MS/MS was used for drug quantitation. The conversion of ABC to PABC facilitated production of stable nanocrystals with a drug loading capacity of more than 70%.

HIV-1ADA [5] = test: IC50 determination of ABC, MABC, PABC in MDM challenged with HIV-1ADA (RT activity); assay type: cell-based; conditions: HIV-1ADA MOI 0.1, RT activity day 10, read-out: IC50 on reverse transcriptase
Procedure: (§2) Antiretroviral activities. Antiretroviral efficacy was determined by measurements of HIV reverse transcriptase (RT) activity. For IC50 determination, MDM were exposed to various concentrations (0.01-1000 nM) of ABC, MABC or PABC for 1 hour followed by challenge with HIV-1ADA at a multiplicity of infection (MOI) of 0.1 infectious particles per cell for 4 hours. Following viral challenge, cells were washed and incubated with the same concentration of drug used before infection for an additional 10 days in culture. Culture fluids were collected on day 10 for the measurement of RT activity. To assess antiretroviral efficacy, MDM were treated with 100 μM ABC, PABC or NPABC as described above for 8 hours. After treatment, cells were washed with PBS and cultured with fresh media, with half-media exchanges every other day. At 0, 4, 12 hours, and 1, 5, 10, 15 or 20 days after treatment, cells were challenged with HIV-1ADA at an MOI of 0.1 infectious particles per cell for 16 hours. After viral infection, the cells were cultured an additional 10 days with half-media exchanges every other day. Culture fluids were collected for measurement of RT activity. Cells were fixed with 4% PFA and expression of HIV-1 p24 antigen was determined by immunocytochemistry.

HIV-1ADA [6] = test: Antiretroviral efficacy of ABC, PABC, NPABC in MDM challenged with HIV-1ADA (RT activity, p24); assay type: cell-based; conditions: 100 μM 8 hours
Procedure: as §2, with “Culture fluids were collected for measurement of RT activity.” left out
Significant improvements in MDM antiretroviral efficacy were also observed for PABC and NPABC. […] HIV-1 p24 was not detected in the PABC or NPABC-treated groups at the measured timepoints (FIG. 6). […]

COC(=O)C(C)NP(=O)(OCC1C=CC(n2cnc3c(NC4CC4)nc(N)nc32)C1)Oc1ccccc1 (mixture of isomers) [M1ABC]
maximum CBV-TP levels [1]: 35650 fmol per million cells | CBV-TP levels at 48 hours [1]: 789 fmol per million cells | percentage decrease of intracellular CBV-TP from Cmax at 48 hours [1]: 97% and 97.8% | mitochondrial activity compared to ABC ([2]; 400 μM): differences in mitochondrial activity were seen | EC50 (HIV-1ADA [3]): 1.8 nM

CCCCCCCCCCCCCCCCCCCCCCOC(=O)C(Cc1ccccc1)NP(=O)(OCC1C=CC(n2cnc3c(NC4CC4)nc(N)nc32)C1)Oc1ccccc1 (mixture of isomers) [M3ABC]
prodrug hydrolyzed/degraded in human serum (Stability assay in serum): Nineteen percent | maximum CBV-TP levels [1]: 541 fmol per million cells | CBV-TP levels at 48 hours [1]: 230 fmol per million cells | percentage decrease of intracellular CBV-TP from Cmax at 48 hours [1]: 57% and 57.3% | cell viability difference versus ABC ([2]; all tested drug concentrations (0-400 μM)): No significant differences | EC50 (HIV-1ADA [3]): 7 nM

CCCCCCCCCCCCCCCCCCCCCCOC(=O)C(Cc1ccccc1)NP(=O)(OCC1C=CC(n2cnc3c(NC4CC4)nc(N)nc32)C1)Oc1ccccc1 (mixture of isomers) [PABC]
drug loading capacity [4]: more than 70% | IC50 (HIV-1ADA [5]): 20.5 nM | antiretroviral activity compared to ABC (HIV-1ADA [6]): enhanced antiretroviral activity | HIV-1 p24 (HIV-1ADA [6]; challenge after 1-20 days): not detected

CCCCCCCCCCCCCC(=O)OCC1C=CC(n2cnc3c(NC4CC4)nc(N)nc32)C1 (stereo not shown) [MABC]
IC50 (HIV-1ADA [5]): 227 nM
